Assay results: ChEMBL document CHEMBL1201862, “PubChem BioAssay data set” (2004)
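Step 1: Grow cells in 96-well plates. Step 2: Expose to compound for 48 hours at 5 concentrations. Step 3: Interpolate endpoints linearly; if unreached, use highest concentration. GI50 = concentration required for 50% inhibition of growth.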 Calls of active or inactive are those of the source. Rule as the data show it: active = GI50 up to about 1.1 µM and inactive = higher.

Assays:
Test in all cases: inhibition of tumour cell growth, NCI panel, 48 h
SR = test system: SR
K562 = test system: K562
HCC 2998 = test system: HCC 2998
RPMI-8226 = test system: RPMI-8226
IGROV-1 = test system: IGROV-1
SNB-19 = test system: SNB-19
U-251 = test system: U-251
HCT-15 = test system: HCT-15
NCI-H522 = test system: NCI-H522
DMS-114 = test system: DMS-114
NCI-H460 = test system: NCI-H460
HCT-116 = test system: HCT-116
SN12C = test system: SN12C
KM12 = test system: KM12
SF-268 = test system: SF-268
SF-295 = test system: SF-295
UO-31 = test system: UO-31
OVCAR-3 = test system: OVCAR-3
MDA-N = test system: MDA-N
NCI/ADR-RES = test system: NCI/ADR-RES

SMILES	GI50 (SR)	GI50 (K562)	GI50 (HCC 2998)	GI50 (RPMI-8226)	GI50 (IGROV-1)	GI50 (SNB-19)	GI50 (U-251)	GI50 (HCT-15) [µM]	GI50 (NCI-H522)	GI50 (DMS-114)	GI50 (NCI-H460)	GI50 (HCT-116)	GI50 (SN12C)	GI50 (KM12)	GI50 (SF-268)	GI50 (SF-295)	GI50 (UO-31)	GI50 (OVCAR-3)	GI50 (MDA-N)	GI50 (NCI/ADR-RES)
O=C(O)/C(=C\c1ccccc1Cl)S(=O)(=O)c1ccccc1	> 10 µM (inactive)	> 100 µM (inactive)	> 100 µM (inactive)	> 100 µM (inactive)	> 100 µM (inactive)	> 100 µM (inactive)	> 100 µM (inactive)	> 100	> 100 µM (inactive)	> 100 µM (inactive)	> 100 µM (inactive)	> 100 µM (inactive)	> 100 µM (inactive)	> 100 µM (inactive)	> 100 µM (inactive)	> 100 µM (inactive)	> 100 µM (inactive)			
c1ccc2c(OCCSCCCCCCCCCCSCCOc3cccc4ccccc34)cccc2c1		> 100 µM (inactive)	> 100 µM (inactive)	> 100 µM (inactive)	> 100 µM (inactive)	> 100 µM (inactive)	> 100 µM (inactive)	> 100	> 100 µM (inactive)	> 100 µM (inactive)	> 100 µM (inactive)		> 100 µM (inactive)	> 100 µM (inactive)	> 100 µM (inactive)	> 100 µM (inactive)	> 100 µM (inactive)	> 100 µM (inactive)		
O=C(NOC(=O)c1ccc([N+](=O)[O-])cc1)c1ccc(Cl)cc1	> 100 µM (inactive)	21.6 µM (inactive)	> 100 µM (inactive)	65.2 µM (inactive)	21.4 µM (inactive)	> 100 µM (inactive)	76.7 µM (inactive)	35.7	27 µM (inactive)	44.5 µM (inactive)	> 100 µM (inactive)	> 100 µM (inactive)	62.4 µM (inactive)	> 100 µM (inactive)	> 100 µM (inactive)	> 100 µM (inactive)	23.8 µM (inactive)			
Cc1cc2c(C=O)n[nH]c2c(C#N)c1C		> 100 µM (inactive)	> 100 µM (inactive)	> 100 µM (inactive)	67 µM (inactive)	> 100 µM (inactive)	60.3 µM (inactive)	32.4	10.4 µM (inactive)	26.5 µM (inactive)	46.6 µM (inactive)	30.4 µM (inactive)	29.3 µM (inactive)	34.7 µM (inactive)	31.9 µM (inactive)	44.1 µM (inactive)	34.5 µM (inactive)	48 µM (inactive)		
CC1(C)C(=NNC(=S)NN)C(C)(C)C1=NNC(=S)NN		43.2 µM (inactive)	> 100 µM (inactive)	> 100 µM (inactive)	> 100 µM (inactive)	> 100 µM (inactive)			75 µM (inactive)	> 100 µM (inactive)			> 100 µM (inactive)		> 100 µM (inactive)	> 100 µM (inactive)		> 100 µM (inactive)		
O=C1c2ccccc2C(=O)N1C/C=N/NS(=O)(=O)c1ccc(Cl)cc1	> 100 µM (inactive)	> 100 µM (inactive)	> 100 µM (inactive)	> 100 µM (inactive)	> 100 µM (inactive)	> 100 µM (inactive)	> 100 µM (inactive)	> 100	> 100 µM (inactive)	> 100 µM (inactive)	> 100 µM (inactive)	> 100 µM (inactive)	> 100 µM (inactive)		> 100 µM (inactive)	> 100 µM (inactive)	> 100 µM (inactive)			
CCOC(=O)COc1cccc2c1C(=O)CCO2		> 100 µM (inactive)	> 100 µM (inactive)	> 100 µM (inactive)	> 100 µM (inactive)	> 100 µM (inactive)	> 100 µM (inactive)	> 100	> 100 µM (inactive)	> 100 µM (inactive)	> 100 µM (inactive)	> 100 µM (inactive)	> 100 µM (inactive)	> 100 µM (inactive)	> 100 µM (inactive)	> 100 µM (inactive)	> 100 µM (inactive)	> 100 µM (inactive)		
O=C(CC(=O)c1cccc([N+](=O)[O-])c1)C(=O)Nc1ccccc1		> 100 µM (inactive)	> 100 µM (inactive)	> 100 µM (inactive)	> 100 µM (inactive)	> 100 µM (inactive)	> 100 µM (inactive)	> 100	> 100 µM (inactive)	> 100 µM (inactive)	> 100 µM (inactive)	> 100 µM (inactive)	> 100 µM (inactive)	> 100 µM (inactive)	> 100 µM (inactive)	> 100 µM (inactive)	> 100 µM (inactive)	> 100 µM (inactive)		
COc1cccc(C2N3CCCCC3[C@@H]3c4[nH]c5ccccc5c4CCN23)c1OC (stereo not given in full)		14.7 µM (inactive)		18.7 µM (inactive)	18.2 µM (inactive)	11.9 µM (inactive)	17.2 µM (inactive)	17.1		15.5 µM (inactive)	19.2 µM (inactive)	17.3 µM (inactive)	16.9 µM (inactive)		11.5 µM (inactive)	17.6 µM (inactive)	14.9 µM (inactive)	13.1 µM (inactive)		
CC1=C(C(=O)Nc2ccccc2C)C(c2ccccc2O)C(C(=O)Nc2ccccc2C)=C(C)N1	12.3 µM (inactive)	25.2 µM (inactive)	15.9 µM (inactive)	20.3 µM (inactive)	17.6 µM (inactive)	23.4 µM (inactive)		16		22 µM (inactive)	17.1 µM (inactive)	18.4 µM (inactive)	19.5 µM (inactive)	14.7 µM (inactive)	33.7 µM (inactive)	18.6 µM (inactive)	16.8 µM (inactive)	17.3 µM (inactive)		
Nc1nc2sc3ccccc3c(=O)n2n1	> 100 µM (inactive)	> 100 µM (inactive)	> 100 µM (inactive)	> 100 µM (inactive)	> 100 µM (inactive)	> 100 µM (inactive)	> 100 µM (inactive)	> 100		> 100 µM (inactive)	> 100 µM (inactive)	> 100 µM (inactive)	> 100 µM (inactive)	> 100 µM (inactive)	> 100 µM (inactive)	> 100 µM (inactive)	> 100 µM (inactive)	> 100 µM (inactive)		
Nc1ncnc2c1ncn2C1OC(CSC(F)(F)F)C(O)C1O (stereo not given)		> 100 µM (inactive)	> 100 µM (inactive)	> 100 µM (inactive)	> 100 µM (inactive)		> 100 µM (inactive)	> 100	> 100 µM (inactive)	> 100 µM (inactive)	> 100 µM (inactive)	> 100 µM (inactive)	> 100 µM (inactive)	> 100 µM (inactive)	> 100 µM (inactive)	> 100 µM (inactive)	> 100 µM (inactive)	> 100 µM (inactive)		
O=C(O)/C=C/c1ccc(O)c(O)c1 [CAFFEIC ACID]		> 100 µM (inactive)	> 100 µM (inactive)	> 100 µM (inactive)	> 100 µM (inactive)	> 100 µM (inactive)	> 100 µM (inactive)	> 100	97.5 µM (inactive)	> 100 µM (inactive)	> 100 µM (inactive)	> 100 µM (inactive)	> 100 µM (inactive)	> 100 µM (inactive)	> 100 µM (inactive)	> 100 µM (inactive)	77.6 µM (inactive)	> 100 µM (inactive)		
[N-]=[N+]=NCC(O)Cn1cnc2c(NC(=O)c3ccccc3)ncnc21 (stereo not given)		79.4 µM (inactive)	> 100 µM (inactive)	> 100 µM (inactive)	> 100 µM (inactive)	> 100 µM (inactive)	> 100 µM (inactive)	> 100	> 100 µM (inactive)	67.1 µM (inactive)	> 100 µM (inactive)	> 100 µM (inactive)	> 100 µM (inactive)	> 100 µM (inactive)	> 100 µM (inactive)	> 100 µM (inactive)	> 100 µM (inactive)			
COc1ccc2cc3n(c2c1)CCc1cc(OC)c(OC)cc1-3		> 100 µM (inactive)	> 100 µM (inactive)		> 100 µM (inactive)	> 100 µM (inactive)	77.1 µM (inactive)		> 100 µM (inactive)	> 100 µM (inactive)	> 100 µM (inactive)		> 100 µM (inactive)	> 100 µM (inactive)	> 100 µM (inactive)	51.2 µM (inactive)	> 100 µM (inactive)			
CCCC(=O)Nc1cc(/C=C/C(=O)N2CC(CCl)c3ccc(N)cc32)n(C)c1 (stereo not given)	0.0242 µM (active)	0.116 µM (active)	0.0908 µM (active)	0.177 µM (active)	0.229 µM (active)	0.406 µM (active)	0.324 µM (active)	0.304	< 0.0113 µM (active)		0.0998 µM (active)	0.129 µM (active)	0.317 µM (active)	0.257 µM (active)	0.259 µM (active)	0.214 µM (active)	0.159 µM (active)	0.268 µM (active)	0.219 µM (active)	0.447 µM (active)
COC(=O)[C@@]12CC[C@]1(C(=O)OC)C1C(C)=CC(=O)O[C@@]12C (stereo not given in full)	> 100 µM (inactive)	> 100 µM (inactive)	> 100 µM (inactive)	> 100 µM (inactive)	> 100 µM (inactive)	> 100 µM (inactive)	> 100 µM (inactive)	> 100	> 100 µM (inactive)		> 100 µM (inactive)	> 100 µM (inactive)	> 100 µM (inactive)	> 100 µM (inactive)	> 100 µM (inactive)	> 100 µM (inactive)	> 100 µM (inactive)	> 100 µM (inactive)	> 100 µM (inactive)	> 100 µM (inactive)
